Read-outs that look alike come from different tables or passages of the source.
Target: T1, PD-1/PD-L1 interaction (Homo sapiens, UniProt Q9NZQ7)
T1 construct: Tag1 or Tag2 (undisclosed kit tag); purchased Cisbio
Assay: Cisbio PD-1/PD-L1 Homogeneous Time-Resolved Fluorescence (HTRF) binding assay
Conditions: for IC50: read-out: Reported IC50
Excerpt: The ability of compounds of the disclosure to inhibit the PD-1/PD-L1 interaction was investigated using a Cisbio PD-1/PD-L1 Homogeneous Time-Resolved Fluorescence (HTRF) binding assay (https://ca.cisbio.net/human-pd1-pd-l1-biochemical-binding-assay-44666).
With the assay, the interaction between PD-L1 and PD-1 is detected by using anti-Tag1 labeled with Europium (HTRF donor) and anti-Tag2 labeled with XL665 (HTRF acceptor). When the donor and acceptor antibodies are brought into close proximity due to PD-L1 and PD-1 binding, excitation of the donor antibody triggers fluorescence resonance energy transfer (FRET) towards the acceptor antibody, which in turn emits specifically at 665 nm. This specific signal is directly proportional to the extent of PD-1/PD-L1 interaction. Thus, a compound blocking the PD-1/PD-L1 interaction causes a reduction in the HTRF signal.
The assay was carried out in accordance with the product insert.

[1] = Table 10, * n = 7, median, P1 and P2 are different isomers
[2] = Table 10, same result in μM, P1 and P2 are different isomers

T1 sequence (Q9NZQ7 19-238 limits assumed): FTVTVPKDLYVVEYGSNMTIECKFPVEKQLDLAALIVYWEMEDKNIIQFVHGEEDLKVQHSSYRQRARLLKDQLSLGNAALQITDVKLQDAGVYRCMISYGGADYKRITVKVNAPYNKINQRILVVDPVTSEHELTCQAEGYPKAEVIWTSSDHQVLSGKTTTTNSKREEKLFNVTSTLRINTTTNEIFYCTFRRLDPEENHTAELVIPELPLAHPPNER

Row | SMILES | IC50 (Table 9) [µM] | IC50 (Table 9, same result in μM) [µM] | further results
1 | COc1ccc(CN2CCC[C@H]2CNc2nc(CN3CCN(C(=O)CCc4nc5ccccc5[nH]4)CC3)cs2)cc1OC [Compound 2678-5] |  |  | IC50 (Table 8, Run: Pure): 9.2 µM
2 | COc1cc(C(=O)N2C[C@@H](C)N(Cc3csc(NC[C@@H]4CCCN4Cc4ccc(Br)cc4)n3)C[C@H]2C)cc(OC)c1OC [Compound A608] | 1.6 | 1.6 | 
3 | COc1cc(CN2CCN(Cc3csc(NCC4CCCN4Cc4ccc(Br)cc4)n3)CC2)cc(OC)c1OC (centres unmarked) [Compound A501] | 0.74 | 0.74 | 
4 | COc1cc(C(=O)N2CCN(Cc3csc(NC[C@@H]4C[C@@H](O)CN4Cc4ccc(Br)cc4)n3)CC2)cc(OC)c1OC [Compound A704] | 0.089 | 0.089 | 
5 | COc1cc(C(=O)N2CCN(Cc3nsc(NC[C@@H]4C[C@@H](O)CN4[C@@H](C)c4ccc(Br)cc4)n3)CC2)cc(OC)c1OC [Compound B910] |  |  | IC50 [1]: 0.044 µM; IC50 [2]: 0.044 µM
6 | COc1cc(C(=O)N2CCN([C@@H](C)c3nsc(NC[C@@H]4CCCN4Cc4ccc(Br)cc4)n3)CC2)cc(OC)c1OC [Compound B806] |  |  | IC50 [1]: 0.012 µM; IC50 [2]: 0.012 µM
7 | COc1cc(C(=O)N2CCN(Cc3csc(NC[C@@H]4CCCN4Cc4ccc(C5CC5)cc4)n3)CC2)cc(OC)c1OC [Compound A303] | 9.1 | 9.1 | 
8 | O=C(Cc1ccccc1)N1CCN(Cc2csc(NC[C@@H]3CCCN3Cc3ccc(Br)cc3)n2)CC1 [Compound 2463-262] |  |  | IC50 (Table 8, Run: Crude): 3.1 µM
9 | Cc1ccc(C(=O)N2CCN(Cc3csc(NC[C@@H]4CCCN4Cc4ccc(Br)cc4)n3)CC2)cc1 [Compound B408] | > 50 | > 50 | 
10 | COc1cc(CN2CCN(Cc3csc(NCC4CCCN4C(C)c4ccc(Br)cc4)n3)CC2)cc(OC)c1OC (centres unmarked) [Compound A601] | 0.159 | 0.16 | 
11 | O=C(C1CC1)N1CCN(Cc2csc(NC[C@@H]3CCCN3Cc3ccc(Br)cc3)n2)CC1 [Compound A504] | 2 | 2 | 
12 | COc1cc(C(=O)N2CCN(Cc3csc(NC[C@@H]4CCCN4Cc4ccc(Cl)cc4)n3)CC2)cc(OC)c1OC [Compound B313] | 0.205 | 0.21 | 
13 | O=C(CCc1nc2ccccc2[nH]1)N1CCN(Cc2csc(NC[C@@H]3CCCN3Cc3ccc(F)cc3)n2)CC1 [Compound 2678-3] |  |  | IC50 (Table 8, Run: Pure): 7 µM
14 | COc1cc(C(=O)N2CCN(Cc3csc(NC[C@@H]4CCCN4Cc4ccc(S(C)(=O)=O)cc4)n3)CC2)cc(OC)c1OC [Compound A308] | 0.69 | 0.69 | 
15 | COc1cc(C(=O)N2CCN(Cc3csc(NC[C@@H]4C[C@@H](OC)CN4Cc4ccc(Br)cc4)n3)CC2)cc(OC)c1OC [Compound A705] | 0.171 | 0.17 | 
16 | Cn1ncc2cc(C(=O)N3CCN(Cc4csc(NC[C@@H]5CCCN5Cc5ccc(Br)cc5)n4)CC3)ccc21 [Compound A407] | 0.49 | 0.49 | 
17 | Cc1cnc(C(=O)N2CCN(Cc3csc(NC[C@@H]4CCCN4Cc4ccc(F)cc4)n3)CC2)cn1 [Compound 2678-51] |  |  | IC50 (Table 8, Run: Pure): 8.7 µM
18 | COc1cc(C(=O)N2C[C@H](C)N(Cc3csc(NC[C@@H]4CCCN4Cc4ccc(Br)cc4)n3)C[C@@H]2C)cc(OC)c1OC [Compound A607] | 0.096 | 0.096 | 
19 | COc1cc(C(=O)N2CCN(Cc3nsc(NC[C@@H]4CCCCN4Cc4ccc(Br)cc4)n3)CC2)cc(OC)c1OC [Compound B710] |  |  | IC50 [1]: 0.096 µM; IC50 [2]: 0.096 µM
20 | COc1cc(CN2CCN(Cc3csc(NCC4CCCN4C(=O)c4ccc(Br)cc4)n3)CC2)cc(OC)c1OC (centres unmarked) [Compound A605] | > 50 | > 50 | 
21 | COc1cc(C(=O)N2CCN(Cc3csc(NC[C@@H]4CCCN4Cc4ccncn4)n3)CC2)cc(OC)c1OC [Compound A312] | > 50 | > 50 | 
22 | COc1cc(C(=O)N2CCN(Cc3csc(NC[C@@H]4CCCN4Cc4ccc(Br)c(F)c4)n3)CC2)cc(OC)c1OC [Compound B318] | 0.092 | 0.092 | 
23 | COc1cc(C(=O)N2CCN([C@H](C)c3csc(NC[C@@H]4CCCN4Cc4ccc(Br)cc4)n3)CC2)cc(OC)c1OC [Compound A603] | 0.11 | 0.11 | 
24 | O=C(c1ccco1)N1CCN(Cc2csc(NC[C@@H]3CCCN3Cc3ccc(Br)cc3)n2)CC1 [Compound 2678-66] |  |  | IC50 (Table 8, Run: Pure): 0.87 µM
25 | COc1cc(C(=O)N2CCN(Cc3nsc(NC[C@@H]4CCCN4Cc4ccc(C(F)F)cc4)n3)CC2)cc(OC)c1OC [Compound B316] |  |  | IC50 [1]: 0.025 µM; IC50 [2]: 0.025 µM
26 | COc1cc(C(=O)N2CCN(Cc3csc(N(C)C[C@@H]4CCCN4Cc4ccc(Br)cc4)n3)CC2)cc(OC)c1OC [Compound A606] | > 50 | > 50 | 

Row | SMILES | IC50 (Table 9) [µM] | IC50 (Table 9, same result in μM) [µM] | further results
27 | COc1cc(C(=O)N2CCN(Cc3csc(NC[C@@H]4CCCN4Cc4cnc(C)s4)n3)CC2)cc(OC)c1OC [Compound A310] | 26 | 26 | 
28 | COc1cc(C(=O)N2CCN(Cc3csc(NC[C@@H]4CCCN4Cc4ccc(C)cc4)n3)CC2)cc(OC)c1OC [Compound A304] | 3.5 | 3.5 | 
29 | O=C(c1ccc(Cl)cc1)N1CCN(Cc2nsc(NC[C@@H]3CCCN3Cc3ccc(Br)cc3)n2)CC1 [Compound B411] |  |  | IC50 [1]: 1.02 µM; IC50 [2]: 1 µM
30 | COc1ccc(C(=O)N2CCN(Cc3csc(NC[C@@H]4CCCN4Cc4ccc(Br)cc4)n3)CC2)cc1OC [Compound A402] | 0.62 | 0.62 | 
31 | COc1cc(C(=O)N2CCN(Cc3csc(NC[C@@H]4CCCN4Cc4ccc(Br)cc4)n3)CC2)cc(OC)c1OC [Compound 2678-10] | 0.051 | 0.051 | IC50 (Table 8, Run: Pure): 0.33 µM; KD/IC50 (Table 11, compound of the disclosure): 330 nM
32 | O=C(c1ccc(Cl)cc1)N1CCN(Cc2csc(NCC3CCCN3Cc3ccc(Br)cc3)n2)CC1 (centres unmarked) [Compound B410] | > 5 | > 5 | 
33 | O=C(c1ccc(=O)[nH]c1)N1CCN(Cc2nsc(NC[C@@H]3CCCN3Cc3ccc(Br)cc3)n2)CC1 [Compound B413] |  |  | IC50 [1]: 0.44 µM; IC50 [2]: 0.44 µM
34 | COc1cc(C(=O)N2CCN([C@H](C)c3nsc(NC[C@@H]4CCCN4Cc4ccc(Br)cc4)n3)CC2)cc(OC)c1OC [Compound B805] |  |  | IC50 [1]: 0.014 µM; IC50 [2]: 0.014 µM
35 | COc1cc(C(=O)N2CCN(Cc3csc(NC[C@@H]4CCCN4Cc4ccccc4Br)n3)CC2)cc(OC)c1OC [Compound A306] | 40 | 40 | 
36 | COc1cc(C(=O)N2CCN(Cc3nsc(NC[C@@H]4CCCN4Cc4ccc(Br)c(F)c4)n3)CC2)cc(OC)c1OC [Compound B319] |  |  | IC50 [1]: 0.015 µM; IC50 [2]: 0.015 µM
37 | Cn1cnc2cc(C(=O)N3CCN(Cc4csc(NCC5CCCN5Cc5ccc(Br)cc5)n4)CC3)ccc21 (centres unmarked) [Compound A406] | 0.98 | 0.98 | 
38 | COc1cc(C(=O)C2CCN(Cc3csc(NC[C@@H]4CCCN4Cc4ccc(Br)cc4)n3)CC2)cc(OC)c1OC [Compound A703] | 0.109 | 0.11 | 
39 | COc1cc(C(=O)N2CCN(Cc3csc(NC[C@@H]4CCCN4Cc4ccc(C(F)(F)F)cc4)n3)CC2)cc(OC)c1OC [Compound A302] | 0.14 | 0.14 | 
40 | COc1ccc(C(=O)N2CCN(Cc3csc(NC[C@@H]4CCCN4Cc4ccc(Br)cc4)n3)CC2)cc1 [Compound A401] | 1.2 | 1.2 | 
41 | COc1cc(C(=O)N2CCN(Cc3nsc(NC[C@@H]4C[C@@H](O)CN4Cc4ccc(Br)cc4)n3)CC2)cc(OC)c1OC [Compound B802] |  |  | IC50 [1]: 0.012 µM; IC50 [2]: 0.012 µM
42 | COc1cc(C(=O)N2C[C@H](C)N(Cc3nsc(NC[C@@H]4C[C@@H](O)CN4Cc4ccc(Br)cc4)n3)C[C@@H]2C)cc(OC)c1OC [Compound B911] |  |  | IC50 [1]: 0.033 µM; IC50 [2]: 0.033 µM
43 | COc1cc(C(=O)N2C[C@H](C)N(Cc3nsc(NC[C@@H]4CCCN4Cc4ccc(Br)cc4)n3)C[C@@H]2C)cc(OC)c1OC [Compound B804] |  |  | IC50 [1]: 0.021 µM; IC50 [2]: 0.021 µM
44 | O=C(c1ccc(=O)[nH]c1)N1CCN(Cc2csc(NC[C@@H]3CCCN3Cc3ccc(Br)cc3)n2)CC1 [Compound A405] | 0.247 | 0.25 | 
45 | COc1cc(C(=O)N2CCN(Cc3nsc(NC[C@@H]4CCCN4Cc4ccc(Br)cc4)n3)CC2)cc(OC)c1OC [Compound A702] |  |  | IC50 [1]: 0.015 µM; IC50 [2]: 0.015 µM
46 | COc1cc(C(=O)N2CCN(Cc3csc(NC[C@@H]4CCCN4Cc4ccncc4)n3)CC2)cc(OC)c1OC [Compound A309] | 10.4 | 10 | 
47 | COc1cc(C(=O)N2CCN([C@@H](C)c3csc(NC[C@@H]4CCCN4Cc4ccc(Br)cc4)n3)CC2)cc(OC)c1OC [Compound A604] | 0.215 | 0.22 | 
48 | COc1cc(CN2CCN(Cc3csc(NCC4CCCN4C(C)c4ccc(Br)cc4)n3)CC2)cc(OC)c1OC (centres unmarked) [Compound A602] | 0.324 | 0.32 | 
49 | Cn1cc(C(=O)N2CCN(Cc3nsc(NC[C@@H]4CCCN4Cc4ccc(Br)cc4)n3)CC2)ccc1=O [Compound B415] |  |  | IC50 [1]: 0.216 µM; IC50 [2]: 0.22 µM
50 | O=C(CCc1nc2ccccc2[nH]1)N1CCN(Cc2csc(NCC3CC(OCc4ccccc4)CN3Cc3ccc(Br)cc3)n2)CC1 (centres unmarked) [Compound 2678-78] |  |  | IC50 (Table 8, Run: Pure): 1.6 µM
51 | CCCCCC(=O)N1CCN(Cc2csc(NC[C@@H]3CCCN3CCCc3nc4ccccc4[nH]3)n2)CC1 [Compound 2678-32] |  |  | IC50 (Table 8, Run: Pure (70% Pure)): 7.9 µM
52 | O=C(CCc1nc2ccccc2[nH]1)N1CCN(Cc2csc(NC[C@@H]3CCCN3Cc3ccc(Br)cc3)n2)CC1 [Compound 2678-2] |  |  | IC50 (Table 8, Run: Pure): 1.9 µM

Source: US20230219942A1, “COMPOUNDS COMPRISING A THREE RING CORE AS PD-1/PD-L1 BLOCKERS” (RELIVE THERAPEUTICS INC., priority 2020, published 2023)
